Source: publication PMC11166204, “Mapping the global interactome of the ARF family reveals spatial organization in cellular signaling pathways” (Journal of Cell Science, 2024)
Where two headings read alike, the source gives them in different places. Blank lines part the entries; values can stand above or below the molecule they belong to.

Tests used:
Type in all cases: binding
ARL10 [1] = molecular target: T1, ARL10 (Homo sapiens, UniProt Q8N8L6); assay: co-purified nucleotide by ion-pair reversed-phase HPLC
T1 construct: GFP-tagged, purified from HEK293T cells
T1 sequence (Q8N8L6 1-244): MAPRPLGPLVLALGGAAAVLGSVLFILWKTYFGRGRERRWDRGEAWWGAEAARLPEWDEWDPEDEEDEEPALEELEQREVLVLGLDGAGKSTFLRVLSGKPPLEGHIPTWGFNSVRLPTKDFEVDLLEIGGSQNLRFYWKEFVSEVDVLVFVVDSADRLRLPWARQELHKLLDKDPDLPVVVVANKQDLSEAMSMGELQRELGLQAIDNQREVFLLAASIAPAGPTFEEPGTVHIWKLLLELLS

ARF1 = molecular target: T2, ARF1 (Homo sapiens, UniProt P84077); assay: as above
T2 construct: GFP-tagged, purified from HEK293T cells
T2 sequence (P84077 2-181): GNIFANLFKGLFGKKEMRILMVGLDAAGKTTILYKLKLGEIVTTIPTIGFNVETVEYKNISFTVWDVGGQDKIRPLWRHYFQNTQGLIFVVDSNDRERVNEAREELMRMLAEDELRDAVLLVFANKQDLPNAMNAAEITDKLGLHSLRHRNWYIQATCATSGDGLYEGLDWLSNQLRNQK

KRAS [2] = molecular target: T3, KRAS (Homo sapiens, UniProt P01116); assay: as above
T3 construct: GFP-tagged, purified from HEK293T cells

ARL11 = molecular target: T4, ARL11 (Homo sapiens, UniProt Q969Q4); assay: ITC; 1H-15N HSQC NMR
T4 construct: amino acids 1–196 (GST tag cleaved with thrombin)
T4 sequence (Q969Q4 whole entry, the tested form may be a part): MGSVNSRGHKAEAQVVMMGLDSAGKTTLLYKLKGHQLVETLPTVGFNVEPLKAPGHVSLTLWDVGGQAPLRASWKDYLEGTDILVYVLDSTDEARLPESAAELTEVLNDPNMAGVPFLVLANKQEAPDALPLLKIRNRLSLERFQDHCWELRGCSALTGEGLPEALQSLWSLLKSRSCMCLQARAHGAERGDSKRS

KRAS [3] = molecular target: T5, KRAS (Homo sapiens, UniProt P01116, Q61L); assay: co-purified nucleotide by ion-pair reversed-phase HPLC
T5 construct: GFP-tagged, purified from HEK293T cells

ARL10 [4] = molecular target: T1, ARL10; assay: as above; remark: listed apart in the source

Kd (ARL11; read-out: Kd): 1730 nM
SMILES: Nc1nc2c(ncn2[C@@H]2O[C@H](COP(=O)(O)OP(=O)(O)O)[C@@H](O)[C@H]2O)c(=O)[nH]1 [GDP]
co-purified nucleotide by ion-pair reversed-phase HPLC (ARL10 [1]): WT ARL10 co-precipitated with both GDP and GTP | co-purified nucleotide by ion-pair reversed-phase HPLC (ARF1): WT KRAS remained GDP loaded, as did WT ARF1 | co-purified nucleotide by ion-pair reversed-phase HPLC (KRAS [2]): WT KRAS remained GDP loaded, as did WT ARF1

% GTP (KRAS [3]): 59 % GTP | % GTP (ARL10 [4]): 29 % GTP
SMILES: Nc1nc2c(ncn2[C@@H]2O[C@H](COP(=O)(O)OP(=O)(O)OP(=O)(O)O)[C@@H](O)[C@H]2O)c(=O)[nH]1 [GTP]

SMILES: Nc1nc2c(ncn2[C@@H]2O[C@H](COP(=O)(O)OP(=O)(O)OP(O)(O)=S)[C@@H](O)[C@H]2O)c(=O)[nH]1 [GTPγS]
Kd (ARL11): 1.53 nM
